The source of these data is ChEMBL document CHEMBL5104111, “Boron-Containing heterocycles as promising pharmacological agents” (Bioorg Med Chem, 2022).

≈ marks a conversion by molar mass, not a printed value.

In this experiment the test system is Mycobacterium tuberculosis variant bovis. The experiment can be described thus: Antibacterial activity against Mycobacterium bovis BCG assessed as bacterial growth inhibition. In kind it is functional.
Regarding `O=C(NCCOCCOCCNC(=O)c1ccc2c(c1)B(O)OC2)c1ccc2c(c1)COB2O`, the minimal inhibitory concentration (MIC) (in general, the lowest concentration that inhibits growth of the organism) came to 0.39 µM (≈ 0.183 µg/mL).
Next, `O=C(NCCCOCCOCCOCCCNC(=O)c1ccc2c(c1)B(O)OC2)c1ccc2c(c1)COB2O`: 0.39 µM (≈ 0.211 µg/mL); `O=C(NCCNC(=O)c1ccc2c(c1)B(O)OC2)c1ccc2c(c1)B(O)OC2`: 0.78 µM (≈ 0.296 µg/mL).
